How the values were obtained:
mice [1] = test: Muscular relaxing effect, Righting Reflex Test (R.r), oral, mice; assay type: in vivo, dd Male mice; settings: Mus musculus; for responders at 500 mg/kg: read-out: Inhibition percent of the central muscular relaxing effect, R.r (Righting Reflex Test)
Experimental: (§1) dd Male mice weighing 18 to 22 g, one group consisting of 10 animals, were orally given the compounds (I) to (V) as indicated below suspended in 0.2% carboxymethylcellulose solution in a dose of 0.25ml/10g-body weight. Mephenesin was used as active placebo.

mice [2] = test: Muscular relaxing effect, Traction Test (T.T), oral, mice; assay type: in vivo, dd Male mice; settings: Mus musculus; for responders at 500 mg/kg: read-out: Inhibition percent of the central muscular relaxing effect, T.T (Traction Test)
Experimental: as §1

[3] = test system: carrageenan-induced edema in rats; test: Antiinflammatory effect on carrageenan-induced edema; assay type: in vivo, Wistar male rats
Experimental: […] One hour after the administration of the test compounds, the hind paw was given a subcutaneous injection of 0.05ml of 0.5% carrageenan saline solution, and volume of the hind paw was measured at 1, 2, 3, 4, 5 and 6 hours after the injection of carrageenan by a volume differential meter. Inhibitory percent was calculated based on the swelling in the control. Phenybutazone was used as active placebo.

mice [4] = test: Muscular relaxing effect, Pinna Reflex Test (P.r), oral, mice; assay type: in vivo, dd Male mice; settings: Mus musculus; for responders at 500 mg/kg: read-out: Inhibition percent of the central muscular relaxing effect, P.r (Pinna Reflex Test)
Experimental: as §1
Pinna reflex was observed by using mandolin wire for 1/4 injection syringe.

mice [5] = test: Muscular relaxing effect, Corneal Reflex Test (C.r), oral, mice; assay type: in vivo, dd Male mice; settings: Mus musculus; for responders at 500 mg/kg: read-out: Inhibition percent of the central muscular relaxing effect, C.r (Corneal Reflex Test)
Experimental: as §1
Corneal reflex was observed by using mandolin wire for 1/4 injection syringe.

mice [6] = test: Muscular relaxing effect, Inclined Plane Test (I.P), oral, mice; assay type: in vivo, dd Male mice; settings: Mus musculus; for responders at 500 mg/kg: read-out: Inhibition percent of the central muscular relaxing effect, I.P (Inclined Plane Test)
Experimental: as §1
Mice were placed on veneer inclined at an angle of 30° and on wire-netting inclined at an angle of 60° of which one division is 5 mm square, and mice sliding down were observed as positive, in comparison with normal behavior.

mice [7] = test: Muscular relaxing effect, Rotarod Method (R.R), oral, mice; assay type: in vivo, dd Male mice; settings: Mus musculus; for responders at 500 mg/kg: read-out: Inhibition percent of the central muscular relaxing effect, R.R (Rotarod Method)
Experimental: as §1
Mice were placed on Rotar Load (made by Natsume Seisakusho Co., Ltd.) having a diameter of 3 cm rotating at a speed of 10 rpm and falling (occurring within 3 minutes) was observed.

[8] = Table 1, oral, mice, maximum response 15-180 min, Litchfield Wilcoxon

Row | SMILES | responders at 500 mg/kg (mice [1]; Table 2, 500 mg/kg, oral, mice) [%] | responders at 500 mg/kg (mice [2]; Table 2, 500 mg/kg, oral, mice) [%] | responders at 500 mg/kg (mice [4]; Table 2, 500 mg/kg, oral, mice) [%] | responders at 500 mg/kg (mice [5]; Table 2, 500 mg/kg, oral, mice) [%] | responders at 500 mg/kg (mice [6]; Table 2, 500 mg/kg, oral, mice) [%] | responders at 500 mg/kg (mice [7]; Table 2, 500 mg/kg, oral, mice) [%] | Inhibitory per cent, carrageenan-induced edema, 1 hr ([3]; Table 6, 100 mg/kg oral) [per cent] | Inhibitory per cent, carrageenan-induced edema, 2 hrs. ([3]; Table 6, 100 mg/kg oral) [per cent] | Inhibitory per cent, carrageenan-induced edema, 3 hrs. ([3]; Table 6, 100 mg/kg oral) [per cent] | Inhibitory per cent, carrageenan-induced edema, 4 hrs. ([3]; Table 6, 100 mg/kg oral) [per cent] | Inhibitory per cent, carrageenan-induced edema, 5 hrs. ([3]; Table 6, 100 mg/kg oral) [per cent] | Inhibitory per cent, carrageenan-induced edema, 6 hrs. ([3]; Table 6, 100 mg/kg oral) [per cent] | other results
1 | O=C1NCC(Cc2cccc(C(F)(F)F)c2)O1 (stereo not shown) [IX, 5-(m-trifluoromethylbenzyl)-2-oxazolidone] | 0 | 60 | 60 | 0 | 60 | 90 | – | – | – | – | – | – | Inhibitory per cent, carrageenan-induced edema, 1 hr ([3]; Table 6, 200 mg/kg oral): 45.0 per cent; Inhibitory per cent, carrageenan-induced edema, 2 hrs. ([3]; Table 6, 200 mg/kg oral): 49.4 per cent; Inhibitory per cent, carrageenan-induced edema, 3 hrs. ([3]; Table 6, 200 mg/kg oral): 20.8 per cent; Inhibitory per cent, carrageenan-induced edema, 4 hrs. ([3]; Table 6, 200 mg/kg oral): 11.3 per cent; Inhibitory per cent, carrageenan-induced edema, 5 hrs. ([3]; Table 6, 200 mg/kg oral): 14.5 per cent; Inhibitory per cent, carrageenan-induced edema, 6 hrs. ([3]; Table 6, 200 mg/kg oral): 11.5 per cent
2 | CCc1ccccc1CC1CNC(=O)O1 (stereo not shown) [Compound VI, 5-(o-ethylbenzyl)-2-oxazolidone] | 10 | 40 | 10 | 0 | 50 | 60 | 27.8 | 36.3 | 53.6 | 28.9 | 22.0 | 17.4 | –
3 | CCc1ccc(CC2CNC(=O)O2)cc1 (stereo not shown) [VII, 5-(p-ethylbenzyl)-2-oxazolidone] | 0 | 40 | 0 | 0 | 40 | 80 | – | – | – | – | – | – | –
4 | C=CCOc1ccccc1CC1CNC(=O)O1 (stereo not shown) [Compound X, 5-(o-allyloxybenzyl)-2-oxazolidone] | 30 | 40 | 40 | 0 | 40 | 80 | – | – | – | – | – | – | –
5 | Cc1ccccc1OCC(O)CO (stereo not shown) [Mephenesin, reference compound] | 20 | 40 | 20 | 0 | 60 | 80 | – | – | – | – | – | – | ED50 (mice [1]; [8]): 640 mg/kg; ED50 (mice [2]; [8]): 460 mg/kg; ED50 (mice [4]; [8]): 420 mg/kg; ED50 (mice [5]; [8]): 680 mg/kg; ED50 (mice [6]; [8]): 470 mg/kg; ED50 (mice [7]; [8]): 268 mg/kg
6 | CCCCC1C(=O)N(c2ccccc2)N(c2ccccc2)C1=O [Phenylbutazone, reference compound] | – | – | – | – | – | – | 59.1 | 54.6 | 59.7 | 68.2 | 63.4 | 52.6 | Inhibitory per cent, carrageenan-induced edema, 3 hrs. ([3]; Table 5, 200 mg/kg oral): 76.6 per cent; Inhibitory per cent, carrageenan-induced edema, 6 hrs. ([3]; Table 5, 200 mg/kg oral): 45.1 per cent
7 | O=C1NCC(Cc2ccccc2-c2ccccc2)O1 (stereo not shown) [Compound XIV, 5-(o-phenylbenzyl)-2-oxazolidone] | – | – | – | – | – | – | 12.9 | 35.2 | 40.0 | 15.6 | 9.1 | – | –
8 | NC(=O)OCCCc1ccccc1 [GP, γ-phenylpropylcarbamate, reference compound] | – | – | – | – | – | – | – | – | – | – | – | – | responders at 500 mg/kg (mice [1]; po): 0%; responders at 500 mg/kg (mice [2]; po): 40%; responders at 500 mg/kg (mice [4]; po): 10%; responders at 500 mg/kg (mice [5]; po): 0%; responders at 500 mg/kg (mice [6]; po): 30%; responders at 500 mg/kg (mice [7]; po): 60%
9 | O=C1NCC(Cc2ccccc2Oc2ccccc2)O1 (stereo not shown) [Compound XV, 5-(o-phenoxybenzyl)-2-oxazolidone] | – | – | – | – | – | – | 59.5 | 57.1 | 59.9 | 30.8 | 26.1 | 23.2 | –
